Series [1] is described as follows: Solubility assessment (turbidity absorbance at 325 nm). The format is physicochemical. As to conditions: stock 2 mg/ml diluted 1:1, ambient temperature (typically 25°C), n=1. In short, it runs like this: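 Stock 2 mg/ml peptide, H2O/HCl pH 2.5; 1:1 into 100 mM buffers: acetate pH 4.0/5.0, His pH 6.0/7.0, phosphate pH 6.0/7.0/7.5. A280 + A325, ~25°C, n=1. Soluble ≥ 1 mg/ml if A325 ≤ 0.02.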

For series [2], the target named is T1, human amylin receptor 3 (hAMYR3) consisting of hCTR2 co-expressed with human Receptor Activity Modifying Protein 3 (hRAMP3) (Homo sapiens, UniProt O60896+P30988).
T1 construct: expressed in transfected cells
T1 sequence (P30988 25-474): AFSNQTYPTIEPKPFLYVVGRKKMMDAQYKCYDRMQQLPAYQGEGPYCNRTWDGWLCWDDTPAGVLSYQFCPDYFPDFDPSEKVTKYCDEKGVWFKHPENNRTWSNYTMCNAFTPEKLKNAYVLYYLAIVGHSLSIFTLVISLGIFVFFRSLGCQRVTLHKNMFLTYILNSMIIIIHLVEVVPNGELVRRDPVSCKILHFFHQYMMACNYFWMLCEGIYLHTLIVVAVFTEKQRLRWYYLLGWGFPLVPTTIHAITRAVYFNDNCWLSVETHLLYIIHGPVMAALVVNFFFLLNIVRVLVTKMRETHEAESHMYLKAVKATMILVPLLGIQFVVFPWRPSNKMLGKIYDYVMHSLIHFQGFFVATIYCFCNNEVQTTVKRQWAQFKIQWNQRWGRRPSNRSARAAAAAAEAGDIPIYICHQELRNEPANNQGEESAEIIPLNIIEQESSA
T1 sequence (O60896 24-148 partner): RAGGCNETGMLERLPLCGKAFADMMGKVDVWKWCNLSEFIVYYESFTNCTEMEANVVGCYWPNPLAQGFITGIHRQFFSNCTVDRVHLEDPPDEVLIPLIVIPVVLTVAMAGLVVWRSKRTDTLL
Nature of the series: hAMYR3 assay: induction of cAMP (AlphaScreen cAMP Assay kit) in COS7 cells expressing hAMYR3. The format is cell-based. An excerpt:
The cell line COS7, originating from African Green Monkey kidney fibroblast cells, was used for establishment of the stable cell lines described below. The COS7 cellular background was used due to it being RAMP naive, and as such it provides the best available system for testing of the monomeric hCTR and different heterodimeric amylin receptor subtypes functionally generated by introduction of the individual RAMPs.
A cell line expressing the human amylin receptor 3 (hAMYR3) was generated in the COS7 cellular background as stable clones. In brief, hCTR2 (GI:4502547) and hRAMP3 (GI:118572586) were amplified by PCR using primers encoding terminal restriction sites for subcloning. The 5'-end primers additionally encoded a near Kozak consensus sequence to ensure efficient translation. The fidelity of the DNA encoding the receptor was confirmed by DNA sequencing. The PCR products encoding the receptor were subcloned into a proprietary tri-cistronic mammalian expression vector with RAMP3, hCTR2 and neomycin (G418) resistance marker. The mammalian expression vector encoding the receptor was transfected into COS7 cells by a standard liposome transfection method. 48 hours post-transfection, cells were seeded for limited dilution cloning and selected with 1 mg/ml G418 in the culture medium. After 3 weeks, surviving colonies of hAMY3R-expressing cells were picked, propagated and tested in the amylin efficacy assay as described in Example 3 below. The functional generation of the amylin receptor phenotype was verified in the efficacy assay by a left-shifted efficacy response to amylin relative to monomeric calcitonin receptor, and one hAMYR3-expressing clone was chosen for compound profiling.
In vitro activity of test peptides at the hCTR2 and hAMYR3 receptors was assessed by measuring the induction of cAMP following stimulation of the receptor by pramlintide or peptides of the invention using the AlphaScreen® cAMP Assay kit from Perkin-Elmer.
Briefly, COS7 cells expressing hCTR2 (see Example 2, above) were seeded at 30-40,000 cells per well in 96-well microtiter plates coated with 0.01 % poly-L-lysine, and grown for 1 day in culture in 100 µl growth medium [DMEM, 10% FCS, Penicillin (100 IU/ml), Streptomycin (100 µg/ml)]. On the day of analysis, growth medium was removed and the cells were washed once with 200 µl Tyrode buffer [Tyrode's Salts (9.6 g/l), 10 mM HEPES, pH 7.4]. Cells were incubated in 100 µl Tyrode buffer containing increasing concentrations of test peptides, 100 µM IBMX and 0.1% casein for 15 min at 37° C. The reaction was stopped by carefully decanting off the compound/buffer medium and replacing it with lysis/detection buffer (80 µl 0.1 % w/v BSA, 5 mM HEPES, 0.3 % v/v Tween-20 in deionized water). After incubation at room temperature for 10 min., the cAMP content of the resulting cell lysate was estimated according to the AlphaScreen® cAMP Assay manufacturer's instructions. EC50 values and relative efficacy values (in %) compared to reference peptide (Pramlintide) were estimated by computer-aided curve fitting using the 4-parameter logistic (4PL) non-linear model.
The in vitro activity results (expressed as EC50 values) for peptides of the invention and for Pramlintide (reference peptide) are summarized in Table 2, below.

Series [3] deals with T2, human calcitonin receptor (hCTR2) (Homo sapiens, UniProt P30988).
T2 construct: expressed in transfected cells
T2 sequence (P30988 25-474): T1 sequence (P30988 25-474)
Nature of the series: hCTR2 assay: induction of cAMP (AlphaScreen cAMP Assay kit) in COS7 cells expressing hCTR2. The format is cell-based. As to conditions: cAMP induction in COS7 cells expressing hCTR2; average of a minimum of 3 determinations; read-out: hCTR2 EC50. In short, it runs like this: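 Functional agonism is measured as cAMP accumulation in a COS7 line stably transfected with hCTR2, lacking endogenous RAMPs. Peptides act for 15 min at 37° C with IBMX present, and curves are fitted with a 4-parameter logistic model.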
For orientation: Alpha assays give light when donor and acceptor beads are brought close together.

[4] abbreviates: cAMP induction in COS7 cells expressing hAMYR3, average of a minimum of 3 determinations, read-out: hAMY R3 EC50.

Read-outs that look alike come from different tables or passages of the source. Numbered stars: 1 amine (or outer) side, 2 acyl side, 3 side chain; on linkers, the order of the positions; unused ones are H or OH. Bridge positions count the residues as written; N and C are the ends. Square brackets hold non-standard residues; d marks the D form. Peptide text beside a SMILES is read from it. * marks the point of attachment. Pro(trans-4-Ph) = O=C(O)[C@@H]1C[C@@H](c2ccccc2)CN1; C20 diacid = O=C(O)CCCCCCCCCCCCCCCCCCC(=O)*; γGlu = O=C(O)[C@H](CCC(=O)[*:2])N[*:1]; Hyp = O=C(O)[C@@H]1C[C@@H](O)CN1; NMeI = CC[C@H](C)[C@H](NC)C(=O)O; Sar = CNCC(=O)O

Regarding `CC[C@H](C)[C@@H](C(=O)N[C@@H](CC(C)C)C(=O)N[C@@H](CO)C(=O)N[C@@H](CO)C(=O)N[C@H](C(=O)N[C@@H](CC(N)=O)C(=O)N[C@H](C(=O)NCC(=O)N[C@@H](CO)C(=O)N[C@@H](CC(N)=O)C(=O)N[C@H](C(=O)N1CCC[C@H]1C(N)=O)[C@@H](C)O)C(C)C)[C@@H](C)O)N(C)C(=O)[C@H](C)NC(=O)CN(C)C(=O)[C@H](Cc1ccccc1)NC(=O)[C@H](CC(N)=O)NC(=O)[C@H](CC(N)=O)NC(=O)[C@H](CO)NC(=O)[C@H](CO)NC(=O)[C@H](CCCNC(=N)N)NC(=O)[C@H](Cc1c[nH]cn1)NC(=O)[C@H](CC(C)C)NC(=O)[C@H](Cc1ccccc1)NC(=O)[C@H](CCC(=O)O)NC(=O)[C@H](C)NC(=O)[C@H](CC(C)C)NC(=O)[C@H](CCCNC(=N)N)NC(=O)[C@H](CCC(N)=O)NC(=O)[C@@H](NC(=O)[C@H](C)NC(=O)[C@@H]1CSSC[C@H](NC(=O)[C@H](CCCNC(=N)N)NC(=O)[C@H](CCCNC(=N)N)NC(=O)CC[C@H](NC(=O)CCCCCCCCCCCCCCCCCCC(=O)O)C(=O)O)C(=O)N[C@@H](CC(N)=O)C(=O)N[C@@H]([C@@H](C)O)C(=O)N[C@@H](C)C(=O)N[C@@H]([C@@H](C)O)C(=O)N1)[C@@H](C)O` [Compound 83, [19CD]-isoGlu-RRC()NTATC()ATQRLAEFLHRSSNNF-Gly(Me)-A-Ile(Me)-LSSTNVGSNTP-NH2] ({C20 diacid-γGlu}-RRCNTATCATQRLAEFLHRSSNNF[Sar]A[NMeI]LSSTNVGSNTP-NH2; disulfide 3-8), the “Solubility, Acetate buffer pH 4” value in series [1] (100 mM acetate buffer pH 4.0) is given as “SS (SS indicates solubility ≥ 1mg/ml)”. For the same molecule, in series [1] (100 mM acetate buffer pH 5.0), the “Solubility, Acetate buffer pH 5” value is listed as “SS (SS indicates solubility ≥ 1mg/ml)”. In addition, in series [1] (100 mM histidine buffer pH 6.0), the “Solubility, Histidine buffer pH 6” value is recorded as “SS (SS indicates solubility ≥ 1mg/ml)”. Further, the “Solubility, Histidine buffer pH 7” value in series [1] (100 mM histidine buffer pH 7.0) was “SS (SS indicates solubility ≥ 1mg/ml)”. In series [1] (100 mM phosphate buffer pH 6.0), the “Solubility, Phosphate buffer pH 6” value is on record as “SS (SS indicates solubility ≥ 1mg/ml)”. Besides, in series [1] (100 mM phosphate buffer pH 7.0), the “Solubility, Phosphate buffer pH 7” value was “SS (SS indicates solubility ≥ 1mg/ml)”. Also, the “Solubility, Phosphate buffer pH 7.5” value in series [1] (100 mM phosphate buffer pH7.5) is recorded as “SS (SS indicates solubility ≥ 1mg/ml)”. Further, the EC50 (as a rule, the midpoint of the concentration-response curve) in series [2] was determined as 0.095 nM.
As for `CC[C@H](C)[C@@H](C(=O)N[C@@H](CC(C)C)C(=O)N[C@@H](CO)C(=O)N[C@@H](CO)C(=O)N[C@H](C(=O)N[C@@H](CC(N)=O)C(=O)N[C@H](C(=O)NCC(=O)N[C@@H](CO)C(=O)N[C@@H](CC(N)=O)C(=O)N[C@H](C(=O)N1C[C@H](O)C[C@H]1C(N)=O)[C@@H](C)O)C(C)C)[C@@H](C)O)N(C)C(=O)CN(C)C(=O)[C@H](Cc1ccccc1)NC(=O)[C@H](CC(N)=O)NC(=O)[C@H](CC(N)=O)NC(=O)[C@H](CO)NC(=O)[C@H](CO)NC(=O)[C@H](CCCNC(=N)N)NC(=O)[C@H](Cc1c[nH]cn1)NC(=O)[C@H](CC(C)C)NC(=O)[C@H](Cc1ccccc1)NC(=O)[C@H](CCC(=O)O)NC(=O)[C@H](C)NC(=O)[C@H](CC(C)C)NC(=O)[C@H](CCCNC(=N)N)NC(=O)[C@H](CCC(N)=O)NC(=O)[C@@H](NC(=O)[C@H](C)NC(=O)[C@@H]1CSSC[C@H](NC(=O)[C@H](CCCNC(=N)N)NC(=O)CC[C@H](NC(=O)CCCCCCCCCCCCCCCCCCC(=O)O)C(=O)O)C(=O)N[C@@H](CC(N)=O)C(=O)N[C@@H]([C@@H](C)O)C(=O)N[C@@H](C)C(=O)N[C@@H]([C@@H](C)O)C(=O)N1)[C@@H](C)O` [Compound 106, [19CD]-isoGlu-RC()NTATC()ATQRLAEFLHRSSNNF-Gly(Me)-Ile(Me)-LSSTNVGSNT-Hyp-NH2] ({C20 diacid-γGlu}-RCNTATCATQRLAEFLHRSSNNF[Sar][NMeI]LSSTNVGSNT[Hyp]-NH2; disulfide 2-7), the EC50 came to 0.14 nM in series [2] (setting [4]) and 0.12 nM in series [3].
For the molecule `CC[C@H](C)[C@@H](C(=O)N[C@@H](CC(C)C)C(=O)N[C@@H](CO)C(=O)N[C@@H](CO)C(=O)N[C@H](C(=O)N[C@@H](CC(N)=O)C(=O)N[C@H](C(=O)NCC(=O)N[C@@H](CO)C(=O)N[C@@H](CC(N)=O)C(=O)N[C@H](C(=O)N1C[C@H](c2ccccc2)C[C@H]1C(N)=O)[C@@H](C)O)C(C)C)[C@@H](C)O)N(C)C(=O)CN(C)C(=O)[C@H](Cc1ccccc1)NC(=O)[C@H](CC(N)=O)NC(=O)[C@H](CC(N)=O)NC(=O)[C@H](CO)NC(=O)[C@H](CO)NC(=O)[C@H](CCCNC(=N)N)NC(=O)[C@H](Cc1c[nH]cn1)NC(=O)[C@H](CC(C)C)NC(=O)[C@H](Cc1ccccc1)NC(=O)[C@H](CCC(=O)O)NC(=O)[C@H](C)NC(=O)[C@H](CC(C)C)NC(=O)[C@H](CCCNC(=N)N)NC(=O)[C@H](CCC(N)=O)NC(=O)[C@@H](NC(=O)[C@H](C)NC(=O)[C@@H]1CSSC[C@H](NC(=O)[C@H](CCCNC(=N)N)NC(=O)CC[C@H](NC(=O)CCCCCCCCCCCCCCCCCCC(=O)O)C(=O)O)C(=O)N[C@@H](CC(N)=O)C(=O)N[C@@H]([C@@H](C)O)C(=O)N[C@@H](C)C(=O)N[C@@H]([C@@H](C)O)C(=O)N1)[C@@H](C)O` [Compound 113, [19CD]-isoGlu-RC()NTATC()ATQRLAEFLHRSSNNF-Gly(Me)-Ile(Me)-LSSTNVGSNT-Php-NH2] ({C20 diacid-γGlu}-RCNTATCATQRLAEFLHRSSNNF[Sar][NMeI]LSSTNVGSNT[Pro(trans-4-Ph)]-NH2; disulfide 2-7), the values for the EC50 in series [2] (setting [4]) and in series [3] were 0.19 nM and 0.17 nM, respectively.
